Data as given in patent publication US20210352889A1, “MACROCYCLIC TETRAPYRROLE COMPOUNDS, COMPOSITIONS AND METHODS FOR INCREASING ABIOTIC STRESS RESISTANCE IN PLANTS” (SUNCOR ENERGY INC., priority 2018, published 2021).

What was measured:
[1] = test system: Tomato cultivar “Tiny Tim”; assay: Tomato plant tolerance to heat stress (Example 19); type: in vivo; conditions: for Above ground plant biomass. Dry weight Total shoots / Roots dry weight / Above ground plant biomass, Fresh weight, Total shoots: heat stress 38° C., two foliar applications; for Above ground plant biomass. Dry weight Total shoots: harvest 27 days after first treatment, per plant; for Roots dry weight / Above ground plant biomass, Fresh weight, Total shoots: tomato; for Above ground plant biomass, Fresh weight, Total shoots: 27 days after first treatment; for Roots dry weight, % increase / Total shoots dry weight % increase / Total shoots fresh weight, % increase: vs Heat stress Control
Experimental: In this example, the effects of chlorin compounds and formulations were tested on Tomato cultivar “Tiny Tim” (Stokes seeds, Ontario, Canada). Several experiments were conducted in the greenhouse and Growth Chamber. The tests were designed to determine the activity of compounds on tomato plants tolerance to heat stress. In the experiments, Tomato transplants were grown in 6″ plastic pots filled with professional soil mix to 5-6 leaves stage in the greenhouse at 22° C.-25° C. and 8 h dark/16 h light photoperiod respectively. […] The Tomato plants were treated with two foliar applications of different formulations providing an even coverage (until run-off) using hand hold Spray bottle (Continental E-Z sprayer). Plants were treated with compounds two times with 7 days interval. Twenty four hours after the first foliar spray plants were placed into a Growth chamber and exposed to temperature stress (heat stress) for 10 days. […] After second foliar spray plants were placed for a second time into the Growth chamber and exposed to temperature stress (heat stress) for another 10 days. The Tomato plants were regularly watered to avoid water deficit. The Growth chamber was set at 16 h light/8 h dark photoperiod, illumination at 300 μmol·m^−2 s^−1 during the light photoperiod and 70% relative humidity. Temperature regime in the Growth chamber was set at 25° C. during the dark. […] Plants were moved from the Growth Chamber to the greenhouse and maintained in the greenhouse for four days prior to harvest. Twenty-seven days after the first treatment, plants were harvested, and biomass were recorded. Untreated plants—Heat stress Control was used as a reference for each measurement respectively. The experiments were set out in a completely randomized design with 6 replications for each treatment.

Arabidopsis thaliana [2] = assay: Plant senescence triggered by salt stress, visual rating (Example 2); type: in vivo; design: key to Ratings at 14 days: 9: Normal growth, no leaf symptoms; 7: Nearly normal growth with some leaves and tips yellow and rolled; 4: Growth severely inhibited, significant yellowing of the leaves with most leaves rolled; 2: Complete growth arrest with most of the leaves dried and some plants dead; conditions: for % improvement: % senescence improvement relative to untreated control, 14 days; for Ratings at 14 days: visual leaf senescence score, salt stress 100, 200, 300 mM NaCl, percentages wt % of total composition
Experimental: In this example, the effect of metalized chlorin compounds and various additives on Arabidopsis thaliana senescence triggered by salt stress was measured by a visual rating scale reflecting progressive leaf senescence symptoms. […] It was also shown that the addition of oil, in particular poly-alpha-olefin (PAO), chelating agents or combinations thereof, further increased the protection. After prolonged exposure to salt stress, Na^+ accumulation in the shoot results in cytotoxic effects, whereby the most visible symptom is yellowing, followed by drying of leaves, due to leaf senescence and death. Leaf senescence may be evaluated by visual scoring reflecting progressive leaf senescence symptoms. [table] […] All percentage values in the Table are in wt % of total composition.

[3] = test system: white clover (Trifolium repens) seedlings; assay: Primary root length of white clover seedlings under salt stress (Example 3); type: in vivo; conditions: porphyrin 0.01% v/v, 7 days after germination, mean ± standard error
Experimental: In this example, the effect of porphyrin compounds on the sensitivity to salt stress of seedlings was evaluated. […] For exposure to salt, the water was adjusted to contain 100 mM NaCl. […] Salt stress tolerance was measured by determining the reduction of primary root length by analysis of pictures with the Image J™ software. Root lengths (mm) were measured 7 days after the germination. The following Table 3 summarizes the results.

Arabidopsis thaliana [4] = assay: Effect of different oil on Arabidopsis senescence under salt stress (Example 24); conditions: in vivo
Experimental: The experimental protocol is the same as that of Example 2. In this example, the effect of metalized chlorin compounds and various oils on Arabidopsis thaliana senescence triggered by salt stress was measured by a visual rating scale reflecting progressive leaf senescence symptoms. […] It was also shown that the addition of oil further increased the protection. After prolonged exposure to salt stress, Na^+ accumulation in the shoot results in cytotoxic effects, whereby the most visible symptom is yellowing, followed by drying of leaves, due to leaf senescence and death. Leaf senescence may be evaluated by visual scoring reflecting progressive leaf senescence symptoms.

[5] = test system: Arabidopsis thaliana seedlings; assay: Primary root length of Arabidopsis seedlings under salt stress (Example 1); type: in vivo; conditions: for Root length (mm): 10 μM CuChln in media, 10 days after germination, mean ± standard error
Experimental: Experiments were conducted to evaluate the effect of metallized chlorin compounds on salt stress treated seedlings, by measuring of primary root length. Copper chlorophyllin (CuChIn) was supplemented to the media onto which Arabidopsis thaliana seeds germinated. […] For exposure to salt, media was adjusted to contain 100 mM NaCl. For exposure to CuChIn, CuChIn was prepared as a 1 mM stock in water and was added to the media at 10 μM CuChIn final concentration. […] Arabidopsis seedlings were grown vertically at a temperature of 24±1° C., under LED lights (PAR 24 μmol m^−2/s^−1) and 16 hours:8 hours, light:dark photoperiod. Salt stress tolerance was measured by determining the reduction of primary root lengths.

Arabidopsis seedlings = assay: Pigment content under photooxidative conditions (Example 6); type: in vivo, Arabidopsis thaliana
Experimental: In this example, the effect of chlorin compounds on the pigment content of seedlings grown under photooxidative conditions was evaluated. In particular, the effect of CuChIn on the pigment content of Arabidopsis seedlings grown under photooxidative conditions was evaluated. To do so, the pigments were extracted and quantified. It was shown that CuChIn supplemented plants retained more pigments under this type of stress. […] In this experiment, to determine the effect of CuChIn on the pigment content, seedlings were grown as in Example 1, except that the plants were transferred under LED lights (PAR 142 μmol m^-2 s^-1) one week after germination. 14 days old seedlings were then harvested and weighted. The tissue was ground in liquid nitrogen. […] The pigment concentrations were determined spectrophotometrically and calculated using the following formulas known to those skilled in the art (i.e. Sumanta et al., 2014):Ch-a=16.72A665.2-9.16A652. (for chlorophyll a); Ch-b=34.09[…]=(1000A470-1.63Ca-104.96Cb)/221 (for carotenoids) and […]-(1⁄4×[…]) (for anthocyanins) (A=absorbance). The data is expressed as means±standard error.

[6] = test system: tomato plants cv. Tumbling Tom; assay: Tomato plants tolerance to drought stress (Example 9); type: in vivo; conditions: Table 9C
Experimental: In this example, the effects of chlorin compounds and formulations were tested on tomato plants cv. Tumbling Tom. The experiments were carried out in a greenhouse. Tests were designed to determine the activity of compounds on tomato plants tolerance to drought stress. In the experiments, tomato plants cv. […] Foliar treatments were applied 3 times with 7 days interval. 5 replications per treatment were used.

[7] = 20 μM CuChln, photooxidative conditions, 14 days old seedlings, mean ± standard error
[8] = foliar spray, vs drought control

## O=C([O-])CN(CCN(CC(=O)[O-])CC(=O)[O-])CC(=O)[O-].[Ca+2].[Ca+2] [0.05% Ca2EDTA, reference compound]
[1]
  Above ground plant biomass. Dry weight Total shoots: 4.72 g
  Roots dry weight: 1.07 g/plant−^1
  Above ground plant biomass, Fresh weight, Total shoots: 34.62 g/plant^−1
  Roots dry weight, % increase: 15%
  Total shoots dry weight % increase: 6%
  Total shoots fresh weight, % increase: 3%

## O=C([O-])CC(NC(CC(=O)[O-])C(=O)[O-])C(=O)[O-].[Na+].[Na+].[Na+].[Na+] (stereo not shown) [0.25% Baypure CX100 ™, tetrasodium iminodisuccinate]
Arabidopsis thaliana [2]
  % improvement: 14.4%
  Ratings at 14 days: 4

## O=C(O)CC(NCCNC(CC(=O)O)C(=O)O)C(=O)O (stereo not shown) [5 mM EDDS, ethylenediamine-N,N′-disuccinic acid, reference compound]
Arabidopsis thaliana [2]
  % improvement: 14.4%
  Ratings at 14 days: 4

## C=CC1=C(C)c2cc3[nH]c(cc4nc(cc5[nH]c(cc1n2)c(C)c5CCC(=O)O)C(CCC(=O)O)=C4C)c(C)c3C=C [PP9, protoporphyrin-IX]
[3]; 0 mM NaCl
  Root length (mm): 1.04 ± 0.05 mm
[3]; 100 mM NaCl
  Root length (mm): 0.7 ± 0.08 mm

## C=CC1=C(C)c2cc3[n-]c(cc4[n-]c(cc5nc(cc1n2)C(C)=C5C=C)c(C)c4CCC(=O)O)c(CCC(=O)O)c3C.[Zn+2] [ZnPP9, zinc protoporphyrin-IX]
[3]; 0 mM NaCl
  Root length (mm): 1.01 ± 0.08 mm
[3]; 100 mM NaCl
  Root length (mm): 0.8 ± 0.08 mm

## copper chlorophyllin [CuChln]
Arabidopsis thaliana [4]
  protection against senescence triggered by salt stress: provided protection against senescence triggered by salt stress
[1]
  Above ground plant biomass. Dry weight Total shoots: 4.92 g
  Roots dry weight: 1.17 g/plant−^1
  Above ground plant biomass, Fresh weight, Total shoots: 37.17 g/plant^−1
  Roots dry weight, % increase: 26%
  Total shoots dry weight % increase: 10%
  Total shoots fresh weight, % increase: 11%
[5]; 0 mM NaCl
  Root length (mm): 5.05 ± 0.09 mm
[5]; 10 μM CuChIn, no salt
  influence on root length in the control experiment: did not influence the root length
[5]; 100 mM NaCl
  Root length (mm): 3.16 ± 0.14 mm
[5]; CuChIn supplemented media
  salt tolerance vs untreated plants: more salt tolerant than untreated plants
Arabidopsis seedlings; [7]
  Anthocyanins: 0.08 ± 0.05 µg/mL
  Ch-a: 6.62 ± 0.8 µg/mL
  Ch-b: 2.28 ± 0.14 µg/mL
  Cx + c (carotenoids): 1.56 ± 0.25 µg/mL
Arabidopsis seedlings; in vivo
  pigments retained under photooxidative conditions: retain more pigments than untreated plants
Arabidopsis thaliana [2]
  % improvement: 28.7%
  Ratings at 14 days: 4.5
Arabidopsis thaliana [2]; in vivo
  protection against senescence triggered by salt stress: provides protection against plants senescence triggered by salt stress
[6]; [8]
  Shoots Dry weight % increase: 4%
  Shoots Fr. weight % increase: 29.6%
[6]; prolonged drought, foliar spray 3 times
  Plant vigor Score 1-5: 4.6
[6]; prolonged drought, foliar spray 3 times with 7 days interval, Rate, %: CuChln 0.1, PAO488 + CuChln 0.5 + 0.1
  Shoots Fr. weight: 8.7 g
[6]; prolonged drought, foliar spray 3 times, Rate, %: CuChln 0.1, PAO488 + CuChln 0.5 + 0.1
  Shoots Dry weight: 0.84 g

## ethylenediaminetetraacetic acid-Ca [reference compound]
Arabidopsis thaliana [2]
  % improvement: 14.4%
  Ratings at 14 days: 4
